Assay results published in PubChem BioAssay (NCI).
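Compound exposure: 48 hours, 5 concentrations, 96-well plates. GI50 = concentration required for 50% inhibition of growth. TGI marks complete inhibition of growth.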

How the values were obtained:
Test in all cases: NCI anticancer screen, dose series, 48 h
[1] = test system: UACC-62 melanoma
[2] = test system: CCRF-CEM leukemia
[3] = test system: NCI-H522 lung
[4] = test system: IGROV1 ovarian
[5] = test system: HS 578T breast
[6] = test system: SF-268 CNS
[7] = test system: MOLT-4 leukemia
[8] = test system: SF-539 CNS
[9] = test system: SK-MEL-28 melanoma
[10] = test system: MCF7 breast
[11] = test system: SN12C renal
[12] = test system: SK-MEL-2 melanoma
[13] = test system: SF-295 CNS
[14] = test system: MDA-MB-231 breast
[15] = test system: COLO 205 colon
[16] = test system: CAKI-1 renal
[17] = test system: OVCAR-3 ovarian
[18] = test system: EKVX NSCLC
[19] = test system: PC-3 prostate
[20] = test system: MDA-MB-435
[21] = test system: OVCAR-4 ovarian
[22] = test system: MALME-3M melanoma
[23] = test system: NCI/ADR-RES ovarian
[24] = test system: SK-MEL-5 melanoma
[25] = test system: 786-0 renal
[26] = test system: HOP-62 NSCLC
[27] = test system: A498 renal
[28] = test system: U251 CNS
[29] = test system: SNB-75 CNS
[30] = test system: RPMI-8226 leukemia
[31] = test system: SNB-19 CNS
[32] = test system: K-562 leukemia
[33] = test system: HCC-2998 colon
[34] = test system: LOX IMVI melanoma
[35] = test system: UACC-257 melanoma
[36] = test system: NCI-H460 lung
[37] = test system: HT29 colon
[38] = test system: HCT-116 colon
[39] = test system: UO-31 renal
[40] = test system: HCT-15 colon
[41] = test system: OVCAR-8 ovarian
[42] = test system: SR leukemia
[43] = test system: SW-620 colon
[44] = test system: BT-549 breast
[45] = test system: HOP-92 NSCLC
[46] = test system: KM12 colon
[47] = test system: DU-145 prostate
[48] = test system: A549 NSCLC
[49] = test system: OVCAR-5 ovarian
[50] = test system: NCI-H23 lung
[51] = test system: NCI-H226 lung
[52] = test system: TK-10 renal
[53] = test system: ACHN renal
[54] = test system: SK-OV-3 ovarian
[55] = test system: HL-60(TB) leukemia
[56] = test system: T-47D breast
[57] = test system: M14 melanoma

SMILES: C[C@H](Nc1ncnc2ccc(-c3cnc(Cl)c(NS(C)(=O)=O)c3)cc12)c1ccccc1
- GI50 [1]: 379 nM
- TGI [1]: 2160 nM
- GI50 [2]: 5.46 µM
- TGI [2]: > 100 µM
- GI50 [3]: 2900 nM
- TGI [3]: 19.4 µM
- GI50 [4]: 278 nM
- TGI [4]: 1500 nM
- GI50 [5]: 199 nM
- TGI [5]: 862 nM
- GI50 [6]: 1110 nM
- TGI [6]: 10.4 µM
- GI50 [7]: 4.33 µM
- TGI [7]: > 100 µM
- GI50 [8]: 1130 nM
- TGI [8]: 3.87 µM
- GI50 [9]: 491 nM
- TGI [9]: 6.77 µM
- GI50 [10]: 277 nM
- TGI [10]: 10.6 µM
- GI50 [11]: 773 nM
- TGI [11]: 27.8 µM
- GI50 [12]: 1520 nM
- TGI [12]: 3.5 µM
- GI50 [13]: 971 nM
- TGI [13]: 4.14 µM
- GI50 [14]: 1030 nM
- TGI [14]: 2700 nM
- GI50 [15]: 2290 nM
- TGI [15]: 7.61 µM
- GI50 [16]: 1110 nM
- TGI [16]: 8.21 µM
- GI50 [17]: 627 nM
- TGI [17]: 2940 nM
- GI50 [18]: 1200 nM
- TGI [18]: 4.36 µM
- GI50 [19]: 806 nM
- TGI [19]: 37.1 µM
- GI50 [20]: 1270 nM
- TGI [20]: 10.7 µM
- GI50 [21]: 1580 nM
- TGI [21]: 11.7 µM
- GI50 [22]: 242 nM
- TGI [22]: 1880 nM
- GI50 [23]: 4.76 µM
- TGI [23]: 19.7 µM
- GI50 [24]: 1040 nM
- TGI [24]: 2210 nM
- GI50 [25]: 1140 nM
- TGI [25]: 7.48 µM
- GI50 [26]: 1300 nM
- TGI [26]: 21 µM
- GI50 [27]: 269 nM
- TGI [27]: 2300 nM
- GI50 [28]: 1050 nM
- TGI [28]: 30.7 µM
- GI50 [29]: 257 nM
- TGI [29]: 4.83 µM
- GI50 [30]: 4.29 µM
- TGI [30]: > 100 µM
- GI50 [31]: 1180 nM
- TGI [31]: 9.94 µM
- GI50 [32]: 7.97 µM
- TGI [32]: > 100 µM
- GI50 [33]: 924 nM
- TGI [33]: 6.86 µM
- GI50 [34]: 344 nM
- TGI [34]: 1890 nM
- GI50 [35]: 1970 nM
- TGI [35]: 13.4 µM
- GI50 [36]: 1390 nM
- TGI [36]: 13.5 µM
- GI50 [37]: 2360 nM
- TGI [37]: 19.7 µM
- GI50 [38]: 1680 nM
- TGI [38]: 6.12 µM
- GI50 [39]: 284 nM
- TGI [39]: 4.85 µM
- GI50 [40]: 766 nM
- TGI [40]: 11.2 µM
- GI50 [41]: 2270 nM
- TGI [41]: 16 µM
- GI50 [42]: 2100 nM
- TGI [42]: > 100 µM
- GI50 [43]: 2000 nM
- TGI [43]: 11.3 µM
- GI50 [44]: 272 nM
- TGI [44]: 2050 nM
- GI50 [45]: 280 nM
- TGI [45]: 4.84 µM
- GI50 [46]: 2300 nM
- TGI [46]: 11.8 µM
- GI50 [47]: 2730 nM
- TGI [47]: 28.4 µM
- GI50 [48]: 3.17 µM
- TGI [48]: 15.7 µM
- GI50 [49]: 1370 nM
- TGI [49]: 11.4 µM
- GI50 [50]: 1070 nM
- TGI [50]: 5.18 µM
- GI50 [51]: 943 nM
- TGI [51]: 8.41 µM
- GI50 [52]: 1910 nM
- TGI [52]: 21.5 µM
- GI50 [53]: 2180 nM
- TGI [53]: > 100 µM
- GI50 [54]: 1610 nM
- TGI [54]: 7.72 µM
- GI50 [55]: 9.47 µM
- TGI [55]: > 100 µM
- GI50 [56]: 175 nM
- TGI [56]: 2410 nM
- GI50 [57]: 1570 nM
- TGI [57]: 12.6 µM
